# Assay results as given in article PMC8006202, “Influence of YES1 Kinase and Tyrosine Phosphorylation on the Activity of OCT1” (Frontiers in Pharmacology, 2021).
# Read-outs that look alike come from different tables or passages of the source.
# Columns and labels:
# human OCT1 (hOCT1) = target: T1, human OCT1 (hOCT1) (Homo sapiens, UniProt O15245); test: Cellular uptake of [14C] TEA or [14C] metformin in HEK293 cells overexpressing hOCT1, with or without inhibitor; assay type: cell-based; conditions: for OCT1 function (TEA transport) in presence of TKI: HEK293-hOCT1, TKI 10 µM, Figure 2D
# T1 construct: expressed in transfected cells
# T1 sequence (O15245 1-554): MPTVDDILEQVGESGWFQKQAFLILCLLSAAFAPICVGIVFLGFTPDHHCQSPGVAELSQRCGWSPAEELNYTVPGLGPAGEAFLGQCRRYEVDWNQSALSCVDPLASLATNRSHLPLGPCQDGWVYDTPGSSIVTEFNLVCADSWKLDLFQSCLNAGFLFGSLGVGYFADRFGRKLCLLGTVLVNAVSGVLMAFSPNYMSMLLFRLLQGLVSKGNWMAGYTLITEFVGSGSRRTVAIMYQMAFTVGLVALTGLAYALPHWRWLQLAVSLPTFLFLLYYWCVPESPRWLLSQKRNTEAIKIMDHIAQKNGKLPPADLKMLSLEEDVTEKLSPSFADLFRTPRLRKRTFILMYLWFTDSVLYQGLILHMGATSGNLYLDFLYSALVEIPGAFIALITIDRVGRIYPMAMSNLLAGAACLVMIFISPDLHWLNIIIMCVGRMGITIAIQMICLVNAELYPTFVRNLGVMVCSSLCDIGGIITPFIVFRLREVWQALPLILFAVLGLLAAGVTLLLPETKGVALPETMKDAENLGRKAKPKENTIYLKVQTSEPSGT
# Method: (§1) Human embryonic kidney (HEK293) cells were obtained from the American Type Culture Collection (ATCC, Manassas, VA). HEK293 cells stably transfected with mouse OCT1 (mOCT1) or human OCT1 (hOCT1) were cultured in Dulbecco’s Modified Eagle Media (DMEM) media supplemented with 10% fetal bovine serum (FBS) and grown at 37°C in a humidified incubator containing 5% CO2. Radiolabeled [^14C] TEA and [^14C] metformin were obtained from American Radiochemicals (St. Louis, MO). Cellular uptake assays were performed 48 h following transient transfection by Lipofectamine 3000 Transfection Reagent (Thermo Fisher Scientific, Waltham, MA). ON-TARGETplus Human YES1 siRNA was obtained from Dharmacon (Lafayette, CO). RNA extraction kits were obtained from Omega Bio-tek (Norcross, GA).
# (§2) The results were normalized to uptake values in cells stably transfected with an empty vector treated with vehicle alone (Supplementary Figure S1). Prior to cellular accumulation experiments, cells were grown to 90% confluence on poly-lysine coated multi-well plates. For uptake studies, cells were rinsed with warm PBS and incubated in the presence of a vehicle or inhibitor, prepared in serum and phenol red-free DMEM media for 15 min. Subsequently, media was removed followed by the addition of radiolabeled TEA and metformin along with inhibitor, and cellular uptake was measured after a 15-min co-incubation period. Total radioactivity originating from TEA and metformin was determined using liquid scintillation counting after lysing the cells with 1 N NaOH, a neutralizing step with 2 M HCl. A Pierce protein assay (Thermo Fisher Scientific, Waltham, MA) was used to normalize radioactivity readings to account for variation in cell number between samples.
# OCT1 (mouse and human) = test: Dose-response OCT1 uptake inhibition, summarised across mOCT1 and hOCT1 models and test substrates; assay type: cell-based; conditions: mouse and human, probe [14C] TEA (2 µM) or [14C] metformin (5 µM); range over mOCT1/hOCT1 models and test substrates
# Method: as §1
# as §2, with “Uptake assays were performed with radiolabeled TEA (2 µM) or metformin (5 µM) as described previously ([Sprowl et al., 2013]; [Pabla et al., 2015]) in the presence or absence of TKIs. The results” for “The results”
# OCT1 = test: as above; assay type: cell-based, human and mouse; conditions: for OCT1 inhibition: Yes/No; for OCT1 function in dose-response experiments: species-independent, regardless of test substrate
# Method: as §1
# as §2, with “Uptake assays were performed with radiolabeled TEA (2 µM) or metformin (5 µM) as described previously ([Sprowl et al., 2013]; [Pabla et al., 2015]) in the presence or absence of TKIs. The results” for “The results”
# OCT2 (hOCT2) [1] = target: T2, OCT2 (hOCT2) (Homo sapiens, UniProt O15244); conditions: Yes/No; TKIs previously found to inhibit OCT2; ref Sprowl et al., 2016; cited from earlier work
# T2 construct: expressed in transfected cells; host or cells: overexpressing cell model
# T2 sequence (O15244 1-555): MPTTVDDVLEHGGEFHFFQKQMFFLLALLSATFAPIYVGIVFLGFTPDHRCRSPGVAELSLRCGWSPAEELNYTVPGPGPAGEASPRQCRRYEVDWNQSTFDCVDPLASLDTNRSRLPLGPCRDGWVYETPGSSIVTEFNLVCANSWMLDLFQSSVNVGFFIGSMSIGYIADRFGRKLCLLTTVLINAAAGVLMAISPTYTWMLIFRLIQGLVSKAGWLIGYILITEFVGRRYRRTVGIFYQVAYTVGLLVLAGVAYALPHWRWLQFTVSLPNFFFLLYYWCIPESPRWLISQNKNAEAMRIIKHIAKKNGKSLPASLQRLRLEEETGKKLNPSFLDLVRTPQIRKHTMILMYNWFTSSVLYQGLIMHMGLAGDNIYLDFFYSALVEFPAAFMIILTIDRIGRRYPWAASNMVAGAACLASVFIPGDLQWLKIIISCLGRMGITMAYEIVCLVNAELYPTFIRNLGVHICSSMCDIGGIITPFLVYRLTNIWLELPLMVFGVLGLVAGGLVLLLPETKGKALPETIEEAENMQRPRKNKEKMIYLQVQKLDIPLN
# YES1 = conditions: read-out: YES1 Kd; ref Klaeger et al., 2017; KINOMEscan data—HMS LINCS Project, 2020; cited from earlier work
# OCT3 = target: T3, OCT3 (Homo sapiens, UniProt O75751); test: OCT3 transport inhibition by TKIs (Supplementary Figure S2); assay type: cell-based
# T3 sequence (O75751 1-556): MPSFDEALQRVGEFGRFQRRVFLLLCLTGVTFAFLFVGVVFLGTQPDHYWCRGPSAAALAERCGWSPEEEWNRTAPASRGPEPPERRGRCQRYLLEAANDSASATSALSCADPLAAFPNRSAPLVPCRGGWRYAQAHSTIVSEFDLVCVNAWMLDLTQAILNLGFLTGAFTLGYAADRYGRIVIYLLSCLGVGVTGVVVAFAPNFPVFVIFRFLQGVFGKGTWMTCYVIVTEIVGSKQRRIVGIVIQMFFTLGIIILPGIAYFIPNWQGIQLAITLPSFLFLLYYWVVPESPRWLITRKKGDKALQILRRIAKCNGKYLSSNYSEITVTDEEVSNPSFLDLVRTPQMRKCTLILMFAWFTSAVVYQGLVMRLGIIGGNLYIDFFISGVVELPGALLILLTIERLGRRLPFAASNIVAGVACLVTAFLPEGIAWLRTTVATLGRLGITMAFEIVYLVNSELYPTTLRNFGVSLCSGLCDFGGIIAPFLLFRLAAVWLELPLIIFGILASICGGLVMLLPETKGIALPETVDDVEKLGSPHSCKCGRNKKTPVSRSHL
# Method: as §2, with “Uptake assays were performed with radiolabeled TEA (2 µM) or metformin (5 µM) as described previously ([Sprowl et al., 2013]; [Pabla et al., 2015]) in the presence or absence of TKIs. The results” for “The results”
# mouse OCT1 (mOCT1) = target: T4, mouse OCT1 (mOCT1) (Mus musculus, UniProt O08966); test: Cellular uptake of [14C] TEA in HEK293 cells overexpressing mOCT1, with or without inhibitor; assay type: cell-based; conditions: models overexpressing mOCT1, Supplementary Figure S4C
# T4 construct: expressed in transfected cells
# T4 sequence (O08966 1-556): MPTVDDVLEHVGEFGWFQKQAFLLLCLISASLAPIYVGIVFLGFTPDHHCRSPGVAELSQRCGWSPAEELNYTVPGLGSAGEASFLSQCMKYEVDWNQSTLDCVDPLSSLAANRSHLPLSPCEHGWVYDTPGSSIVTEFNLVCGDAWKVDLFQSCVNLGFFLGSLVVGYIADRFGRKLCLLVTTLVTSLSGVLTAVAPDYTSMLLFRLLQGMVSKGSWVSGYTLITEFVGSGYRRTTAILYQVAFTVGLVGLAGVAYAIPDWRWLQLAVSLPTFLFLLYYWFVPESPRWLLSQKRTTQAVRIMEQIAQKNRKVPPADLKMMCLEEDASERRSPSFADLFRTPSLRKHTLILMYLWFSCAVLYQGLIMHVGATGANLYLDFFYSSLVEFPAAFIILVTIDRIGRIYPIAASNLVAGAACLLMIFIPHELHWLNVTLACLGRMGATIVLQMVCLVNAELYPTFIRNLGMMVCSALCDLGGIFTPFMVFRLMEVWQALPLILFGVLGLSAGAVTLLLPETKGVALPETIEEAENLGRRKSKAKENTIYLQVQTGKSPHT
# Method: as §1
# as §2, with “Uptake assays were performed with radiolabeled TEA (2 µM) or metformin (5 µM) as described previously ([Sprowl et al., 2013]; [Pabla et al., 2015]) in the presence or absence of TKIs. The results” for “The results”
# OCT2 (hOCT2) [2] = target: T2, OCT2 (hOCT2); test: OCT2 transport inhibition; assay type: cell-based; conditions: models overexpressing hOCT2, Supplementary Figure S4D
# Method: as §2, with “Uptake assays were performed with radiolabeled TEA (2 µM) or metformin (5 µM) as described previously ([Sprowl et al., 2013]; [Pabla et al., 2015]) in the presence or absence of TKIs. The results” for “The results”
# hepatic OCT1 = target: T5, hepatic OCT1 (Mus musculus, UniProt O08966); conditions: OCT1/2-deficient vs wild-type mice, [14C] TEA 0.2 mg/kg i.v.
# T5 sequence (O08966 1-556): T4 sequence (O08966 1-556)
# Method: Mice were accommodated in a temperature-, and light-controlled environment with access to water and food.
# TEA (0.2 mg/kg) via the caudal vein. Concentrations of total TEA-derived radioactivity in plasma and homogenized liver samples were measured by liquid scintillation counting.
Compound,OCT1 function (TEA transport) in presence of TKI (human OCT1 (hOCT1)),IC50 at 15 min (OCT1 (mouse and human)),OCT1 inhibition (OCT1),OCT1 function in dose-response experiments (OCT1),OCT2 inhibition (OCT2 (hOCT2) [1]),OCT3 function in presence of TKI (OCT3),other results
"COc1cc2c(Nc3ccc(Br)cc3F)ncnc2cc1OCC1CCN(C)CC1 [Vandetanib, vandetanib]",inhibit OCT1 function,1350 to 9050 nM,Yes,potently inhibited,Yes,–,Kd (YES1): 120 nM
"C=CC(=O)N1CCC[C@@H](n2nc(-c3ccc(Oc4ccccc4)cc3)c3c(N)ncnc32)C1 [Ibrutinib, ibrutinib]",inhibit OCT1 function,890 to 1180 nM,Yes,potently inhibited,Yes,no influence,–
Cc1cc2cc(C(=O)c3cnn(-c4cnc(Oc5c(F)cccc5F)cc4C)c3N)[nH]c2cc1NS(C)(=O)=O [CH6953755],–,–,–,–,–,–,"IC50 (human OCT1 (hOCT1); HEK293-hOCT1, [14C] TEA 2 µM, 15 min pre-incubation + 15 min co-incubation, read-out: IC50, hOCT1-mediated transport of TEA): 2760 nM; IC50 (human OCT1 (hOCT1); HEK293-hOCT1, [14C] metformin 5 µM, read-out: IC50, hOCT1-mediated transport of metformin): 2310 nM; inhibition of mOCT1-mediated transport (mouse OCT1 (mOCT1)): also observed; inhibition of hOCT2-mediated transport (OCT2 (hOCT2) [2]): also observed"
CCN(CC)CCNC(=O)c1c(C)[nH]c(/C=C2\C(=O)Nc3ccc(F)cc32)c1C [sunitinib],inhibit OCT1 function,–,–,–,–,potently inhibiting,–
"CC[N+](CC)(CC)CC [TEA, tetraethylammonium]",–,–,–,–,–,–,hepatic uptake of TEA (liver-to-plasma concentration ratio) in OCT1/2-deficient mice (hepatic OCT1): dramatically reduced
